Like-named read-outs stand apart in the source and are kept apart here. Where a SMILES comes first, the peptide text is derived from it. Bridges are numbered along the chain shown (N, C = ends). [ ]: non-standard residue; d: D form. The star is where a group is joined. Hexanoyl = CCCCCC(=O)*

Test [1] relates to human colon adenocarcinoma cells. Particulars: 1 mM, within 24 h; cited from earlier work.
Test [2] concerns the target T1, NPR-B (Homo sapiens, UniProt P20594).
T1 construct: a functional assay using endogenously NPR-B expressing GTM-3 cells; endogenous in cells; host or cells: GTM-3 (transformed human trabecular meshwork cells)
T1 sequence (P20594 23-1047): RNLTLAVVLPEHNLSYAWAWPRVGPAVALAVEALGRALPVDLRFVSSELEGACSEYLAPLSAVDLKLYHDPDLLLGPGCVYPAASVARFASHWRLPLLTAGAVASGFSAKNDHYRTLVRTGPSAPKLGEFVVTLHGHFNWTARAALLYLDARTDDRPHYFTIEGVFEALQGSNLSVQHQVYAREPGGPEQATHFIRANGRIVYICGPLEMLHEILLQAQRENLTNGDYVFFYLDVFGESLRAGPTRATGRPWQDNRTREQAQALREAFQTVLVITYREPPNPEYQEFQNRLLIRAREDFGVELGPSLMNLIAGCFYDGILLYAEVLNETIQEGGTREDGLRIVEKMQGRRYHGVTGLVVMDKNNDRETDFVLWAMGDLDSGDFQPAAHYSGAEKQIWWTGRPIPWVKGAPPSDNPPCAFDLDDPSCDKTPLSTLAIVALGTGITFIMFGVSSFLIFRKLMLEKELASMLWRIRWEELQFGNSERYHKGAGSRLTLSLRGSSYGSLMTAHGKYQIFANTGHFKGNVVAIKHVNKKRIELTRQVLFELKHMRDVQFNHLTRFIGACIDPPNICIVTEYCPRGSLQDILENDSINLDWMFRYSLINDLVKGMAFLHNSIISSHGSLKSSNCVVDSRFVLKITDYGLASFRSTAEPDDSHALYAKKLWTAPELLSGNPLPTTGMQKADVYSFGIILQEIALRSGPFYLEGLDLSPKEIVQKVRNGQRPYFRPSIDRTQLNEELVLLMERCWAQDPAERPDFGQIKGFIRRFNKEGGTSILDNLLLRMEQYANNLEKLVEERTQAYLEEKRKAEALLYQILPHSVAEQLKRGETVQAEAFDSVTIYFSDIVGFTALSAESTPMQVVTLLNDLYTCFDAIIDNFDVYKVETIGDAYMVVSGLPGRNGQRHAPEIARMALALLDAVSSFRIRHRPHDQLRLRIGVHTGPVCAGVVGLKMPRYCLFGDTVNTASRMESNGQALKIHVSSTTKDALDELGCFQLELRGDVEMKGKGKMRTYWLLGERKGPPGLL
As to the kind of experiment: NPR-B induced production of cyclic GMP in GTM-3 cells. It is filed as cell-based. The gist of the method: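 GTM-3 cells with endogenous NPR-B were washed and preincubated 15 min at room temperature in medium with 1 mM IBMX. Compounds were tested at final 45 μM to 20 nM; dose-dependent cGMP production gave Emax and EC50.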

Where [3] appears, read: Activity (group): NPR-B activation, EC50 and Emax (CNP = 100%), GTM-3 cells, group needs both EC50 and Emax criteria, checked A then B then C.
Where [4] appears, read: GTM-3 cells, group needs both EC50 and Emax criteria, checked A then B then C, read-out: Activity (group): NPR-B activation, EC50 and Emax (CNP = 100%).

For `CC[C@H](C)[C@@H]1NC(=O)[C@H](CCCNC(=N)N)NC(=O)[C@H](CC(=O)O)NC(=O)[C@H](CCSC)NC(=O)[C@H](CCCNC(=N)N)NC(=O)CNC(=O)CNC(=O)[C@H](Cc2ccccc2)NC(=O)[C@@H](NC(=O)[C@H](CO)NC(=O)[C@H](CO)NC(=O)[C@H](CCCNC(=N)N)NC(=O)[C@H](CCCNC(=N)N)NC(=O)[C@H](CC(C)C)NC(=O)[C@@H](N)CO)CSSC[C@@H](C(=O)N[C@@H](CC(N)=O)C(=O)N[C@@H](CO)C(=O)N[C@@H](Cc2ccccc2)C(=O)N[C@@H](CCCNC(=N)N)C(=O)N[C@@H](Cc2ccc(O)cc2)C(=O)O)NC(=O)CNC(=O)[C@H](CC(C)C)NC(=O)CNC(=O)[C@H](CO)NC(=O)[C@H](CCC(N)=O)NC(=O)[C@H](C)NC(=O)CNC1=O` [ANP, atrial natriuretic peptide], the “decrease in cell number” value in test [1] is listed as “up to 97%”.
For orientation: EC50 means the concentration giving half of the maximal effect. In the case of `CCCCCC(=O)N[C@H]1CSSC[C@@H](C(N)=O)NC(=O)[C@H](CO)NC(=O)[C@H]([C@@H](C)CC)NC(=O)[C@H](CCCNC(=N)N)NC(=O)[C@H](CC(=O)O)NC(=O)[C@H]([C@@H](C)CC)NC(=O)[C@@H]2CCCN2C(=O)[C@H](CC(C)C)NC(=O)CNC(=O)[C@H](Cc2ccccc2)NC(=O)[C@@H](C)NC1=O` [compound 88] (Hexanoyl-C[dA]FGLPIDRISC-NH2; disulfide 1-12), the EC50 in test [2] (setting [3]) was less than 1 µM.
`CCCCCC(=O)N[C@H]1CSSC[C@@H](C(N)=O)NC(=O)[C@H](CO)NC(=O)[C@H]([C@@H](C)CC)NC(=O)[C@H](CCCNC(=N)N)NC(=O)[C@H](CC(=O)O)NC(=O)[C@H]([C@@H](C)CC)NC(=O)[C@@H]2CCCN2C(=O)[C@H](CC(C)C)NC(=O)CNC(=O)[C@H](Cc2ccccc2)NC(=O)[C@H]2CCCN2C1=O` [compound 89] (Hexanoyl-C[dP]FGLPIDRISC-NH2; disulfide 1-12) yielded an EC50 in test [2] (setting [3]) of less than 1 µM.
Regarding `CCCCCC(=O)N[C@H]1CSSC[C@@H](C(N)=O)NC(=O)[C@H](CO)NC(=O)[C@H]([C@@H](C)CC)NC(=O)[C@H](CCCNC(=N)N)NC(=O)[C@H](CC(=O)O)NC(=O)[C@H](CC(C)C)NC(=O)[C@H](CCCCN)NC(=O)[C@H](CC(C)C)NC(=O)CNC(=O)[C@H](Cc2ccccc2)NC(=O)[C@H]2CCCN2C1=O` [compound 90], in test [2] (setting [4]), the EC50 is less than 1 µM.
Molecule `CCCCCC(=O)N[C@H]1CSSC[C@@H](C(N)=O)NC(=O)[C@H](CO)NC(=O)[C@H]([C@@H](C)CC)NC(=O)[C@H](CCCNC(=N)N)NC(=O)[C@H](CC(=O)O)NC(=O)[C@H](CC(C)C)NC(=O)[C@@H]2CCCN2C(=O)[C@H](CC(C)C)NC(=O)CNC(=O)[C@H](Cc2ccccc2)NC(=O)[C@H]2CCCN2C1=O` [compound 91] (Hexanoyl-C[dP]FGLPLDRISC-NH2; disulfide 1-12) had an EC50 in test [2] (setting [3]) of less than 1 µM.
As to `CCCCCC(=O)N[C@H]1CSSC[C@@H](C(N)=O)NC(=O)[C@H](CO)NC(=O)[C@H]([C@@H](C)CC)NC(=O)[C@H](CCCNC(=N)N)NC(=O)[C@H](CC(=O)O)NC(=O)[C@H]([C@@H](C)CC)NC(=O)[C@H](CCCCN)NC(=O)[C@H](CC(C)C)NC(=O)CNC(=O)[C@H](Cc2ccccc2)NC(=O)[C@H]2CCCN2C1=O` [compound 92] (Hexanoyl-C[dP]FGLKIDRISC-NH2; disulfide 1-12), the EC50 in test [2] (Activity (group): NPR-B activation, EC50 and Emax (CNP = 100%)) was less than 1 µM.
On to `CCCCCC(=O)N[C@H]1CSSC[C@@H](C(N)=O)NC(=O)[C@H](CO)NC(=O)[C@H]([C@@H](C)CC)NC(=O)[C@H](CCCNC(=N)N)NC(=O)[C@H](CC(=O)O)NC(=O)[C@H](CC(C)C)NC(=O)[C@@H]2CCCN2C(=O)[C@H](CC(C)C)NC(=O)CNC(=O)[C@H](Cc2ccccc2)NC(=O)[C@@H](C)NC1=O` [compound 93], for which the EC50 in test [2] (setting [3]) was less than 1 µM.
With `CCCCCC(=O)N[C@H]1CSSC[C@@H](C(N)=O)NC(=O)[C@H](CO)NC(=O)[C@H]([C@@H](C)CC)NC(=O)[C@H](CCCNC(=N)N)NC(=O)[C@H](CC(=O)O)NC(=O)[C@H](CC(C)C)NC(=O)[C@H](CCCCN)NC(=O)[C@H]([C@@H](C)O)NC(=O)CNC(=O)[C@H](Cc2ccccc2)NC(=O)[C@@H](C)NC1=O` [compound 100] (Hexanoyl-C[dA]FGTKLDRISC-NH2; disulfide 1-12), the EC50 in test [2] (setting [4]) is less than 5 µM.
Still for that read-out and setting: in the case of `CCCCCC(=O)N[C@H]1CSSC[C@@H](C(N)=O)NC(=O)[C@H](CO)NC(=O)[C@H]([C@@H](C)CC)NC(=O)[C@H](CCCNC(=N)N)NC(=O)[C@H](CC(=O)O)NC(=O)[C@H](CC(C)C)NC(=O)[C@H](CCCCN)NC(=O)[C@H](C)NC(=O)CNC(=O)[C@H](Cc2ccccc2)NC(=O)[C@@H](C)NC1=O` [compound 101] (Hexanoyl-C[dA]FGAKLDRISC-NH2; disulfide 1-12) it was less than 5 µM; in that of `CCCCCC(=O)N[C@H]1CSSC[C@@H](C(N)=O)NC(=O)[C@H](CO)NC(=O)[C@H]([C@@H](C)CC)NC(=O)[C@H](CCCNC(=N)N)NC(=O)[C@H](CC(=O)O)NC(=O)[C@H](CC(C)C)NC(=O)[C@H](CCCCN)NC(=O)CNC(=O)CNC(=O)[C@H](Cc2ccccc2)NC(=O)[C@@H](C)NC1=O` [compound 102] (Hexanoyl-C[dA]FGGKLDRISC-NH2; disulfide 1-12), less than 5 µM; in that of `CCCCCC(=O)N[C@H]1CSSC[C@@H](C(N)=O)NC(=O)[C@H](CO)NC(=O)[C@H]([C@@H](C)CC)NC(=O)[C@H](CCCNC(=N)N)NC(=O)[C@H](CC(=O)O)NC(=O)[C@H](CC(C)C)NC(=O)[C@H](CCCCN)NC(=O)[C@H](CC(C)C)NC(=O)CNC(=O)[C@H](Cc2cccc(C(F)(F)F)c2)NC(=O)[C@@H](C)NC1=O` [compound 105], less than 15 µM.
For the molecule `CCCCCC(=O)N[C@H]1CSSC[C@@H](C(N)=O)NC(=O)[C@H](CO)NC(=O)[C@H]([C@@H](C)CC)NC(=O)[C@H](Cc2ccc(C(=N)N)cc2)NC(=O)[C@H](CC(=O)O)NC(=O)[C@H](CC(C)C)NC(=O)[C@H](CCCCN)NC(=O)[C@H](CC(C)C)NC(=O)CNC(=O)[C@H](Cc2ccccc2)NC(=O)[C@@H](C)NC1=O` [compound 112], in test [2] (setting [4]), the EC50 is less than 15 µM.
Consider `CCCCCC(=O)N[C@H]1CSSC[C@@H](C(N)=O)NC(=O)[C@H](CO)NC(=O)[C@H]([C@@H](C)CC)NC(=O)[C@H](CCNC(=N)N)NC(=O)[C@H](CC(=O)O)NC(=O)[C@H](CC(C)C)NC(=O)[C@H](CCCCN)NC(=O)[C@H](CC(C)C)NC(=O)CNC(=O)[C@H](Cc2ccccc2)NC(=O)[C@@H](C)NC1=O` [compound 114], for which the EC50 in test [2] (setting [4]) was less than 15 µM.
Same read-out and setting: in the case of `CCCCCC(=O)N[C@H]1CSSC[C@@H](C(N)=O)NC(=O)[C@H](CO)NC(=O)C2(CCOCC2)NC(=O)[C@H](CCCNC(=N)N)NC(=O)[C@H](CC(=O)O)NC(=O)[C@H](CC(C)C)NC(=O)[C@H](CCCCN)NC(=O)[C@H](CC(C)C)NC(=O)CNC(=O)[C@H](Cc2ccccc2)NC(=O)[C@@H](C)NC1=O` [compound 116] it was less than 15 µM; in that of `CCCCCC(=O)N[C@H]1CSSC[C@@H](C(N)=O)NC(=O)[C@H](CO)NC(=O)C2(CCSCC2)NC(=O)[C@H](CCCNC(=N)N)NC(=O)[C@H](CC(=O)O)NC(=O)[C@H](CC(C)C)NC(=O)[C@H](CCCCN)NC(=O)[C@H](CC(C)C)NC(=O)CNC(=O)[C@H](Cc2ccccc2)NC(=O)[C@@H](C)NC1=O` [compound 117], less than 15 µM.
In general, Emax refers to the size of the effect at its maximum, as opposed to the concentration needed. For the molecule `CC[C@H](C)[C@@H]1NC(=O)[C@H](CCCNC(=N)N)NC(=O)[C@H](CC(=O)O)NC(=O)[C@H](CCSC)NC(=O)[C@H](CCCNC(=N)N)NC(=O)CNC(=O)CNC(=O)[C@H](Cc2ccccc2)NC(=O)[C@H](Cc2c[nH]cn2)NC(=O)[C@@H](NC(=O)[C@@H](N)CCSC)CSSC[C@@H](C(=O)N[C@@H](Cc2ccc(O)cc2)C(=O)N[C@@H](CCCNC(=N)N)C(N)=O)NC(=O)[C@H](CO)NC1=O` [mini-ANP, reference compound] (H-MCHFGGRMDRISCYR-NH2; disulfide 2-13), the maximum response (Emax) in test [2] (GTM3, GTM-3 cells, FIG. 2, CNP = 100%, read-out: Emax (maximum activation) relative to CNP) turned out to be 0%. In addition, in test [2] (GTM-3 cells, FIG. 2, highest concentration 45 μM, read-out: EC50, cyclic GMP production), the EC50 was more than 45 µM.

The record behind these values is patent publication US9458198B1, “Cyclic peptide-based NPR-B agonists” (priority 2009, dated 2016).
